Data: patent US12708630B2, “Combined therapy of 4′-thio-5-aza-2′-deoxycytidine and Venetoclax” (PINOTBIO, INC., priority 2021, dated 2026)

Experiments:
Assay in all cases: drug activity profiling cytotoxicity
Type in all cases: cell-based
A-253 = conditions: Homo sapiens, A253; A-253 cell line, Head and Neck; read-out: Aza-T-dCyd IC50
Outline: (§1)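 Aza-T-dCyd profiled, cytotoxicity endpoint, 200-line panel, biomarker-oriented.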

AGS = conditions: Homo sapiens; AGS cell line, Stomach; read-out: Aza-T-dCyd IC50
Outline: as §1

ARH-77 = conditions: Homo sapiens; ARH-77 cell line, B-cell lymphoma; read-out: Aza-T-dCyd IC50
Outline: as §1

AsPC-1 = conditions: Homo sapiens, ASPC1; AsPC-1 cell line, Pancreas; read-out: Aza-T-dCyd IC50
Outline: as §1

BM-1604 = BM-1604 cell line, Prostate; read-out: Aza-T-dCyd IC50
Outline: as §1

BV-173 = conditions: Homo sapiens; BV-173 cell line, CML; read-out: Aza-T-dCyd IC50
Outline: as §1

C-33A = conditions: Homo sapiens; C-33A cell line, Female GU (Cervix); read-out: Aza-T-dCyd IC50
Outline: as §1

C32TG = C32TG cell line, Skin (Melanoma); read-out: Aza-T-dCyd IC50
Outline: as §1

CCRFCEM = conditions: Homo sapiens, CCRF-CEM; CCRFCEM cell line, ALL; read-out: Aza-T-dCyd IC50
Outline: as §1

CGTH-W-1 = conditions: Homo sapiens; CGTH-W-1 cell line, Endocrine (Thyroid); read-out: Aza-T-dCyd IC50
Outline: as §1

COR-L105 = conditions: Homo sapiens; COR-L105 cell line, Lung (NSCLC); read-out: Aza-T-dCyd IC50
Outline: as §1

Colo 320DM = conditions: Homo sapiens; Colo 320DM cell line, Colon; read-out: Aza-T-dCyd IC50
Outline: as §1

DBTRG-05MG = conditions: Homo sapiens; DBTRG-05MG cell line, CNS (Glioma); read-out: Aza-T-dCyd IC50
Outline: as §1

DU145 = conditions: Homo sapiens, DU-145; DU145 cell line, Prostate; read-out: Aza-T-dCyd IC50
Outline: as §1

Daoy = conditions: Homo sapiens; Daoy cell line, CNS (Medulloblastoma); read-out: Aza-T-dCyd IC50
Outline: as §1

Daudi = conditions: Homo sapiens; Daudi cell line, Burkitt's lymphoma; read-out: Aza-T-dCyd IC50
Outline: as §1

EM-2 = conditions: Homo sapiens; EM-2 cell line, CML; read-out: Aza-T-dCyd IC50
Outline: as §1

HL-60 = conditions: Homo sapiens; HL-60 cell line, AML; read-out: Aza-T-dCyd IC50
Outline: as §1

HeLa = conditions: Homo sapiens; HeLa cell line, Female GU (Cervix); read-out: Aza-T-dCyd IC50
Outline: as §1

J-RT3-T3-5 = conditions: Homo sapiens; J-RT3-T3-5 cell line, T-cell Lymphoma; read-out: Aza-T-dCyd IC50
Outline: as §1

KG-1 = conditions: Homo sapiens; KG-1 cell line, AML; read-out: Aza-T-dCyd IC50
Outline: as §1

LS411N = conditions: Homo sapiens, LS-411N; LS411N cell line, Colon; read-out: Aza-T-dCyd IC50
Outline: as §1

MDA MB 231 = conditions: Homo sapiens; MDA MB 231 cell line, Breast; read-out: Aza-T-dCyd IC50
Outline: as §1

NCI-H508 = conditions: Homo sapiens; NCI-H508 cell line, Colon; read-out: Aza-T-dCyd IC50
Outline: as §1

SH-4 = conditions: Homo sapiens; SH-4 cell line, Skin (Melanoma); read-out: Aza-T-dCyd IC50
Outline: as §1

SU-DHL-4 = conditions: Homo sapiens; SU-DHL-4 cell line, B-cell lymphoma; read-out: Aza-T-dCyd IC50
Outline: as §1

SW1463 = conditions: Homo sapiens; SW1463 cell line, Colon; read-out: Aza-T-dCyd IC50
Outline: as §1

SW837 = conditions: Homo sapiens; SW837 cell line, Colon; read-out: Aza-T-dCyd IC50
Outline: as §1

Thp1 = conditions: Homo sapiens, THP-1; Thp1 cell line, AML; read-out: Aza-T-dCyd IC50
Outline: as §1

U-118 MG = conditions: Homo sapiens; U-118 MG cell line, CNS (Glioma); read-out: Aza-T-dCyd IC50
Outline: as §1

VA-ES-BJ = VA-ES-BJ cell line, Sarcoma; read-out: Aza-T-dCyd IC50
Outline: as §1

Nc1ncn([C@H]2CC(O)[C@@H](CO)S2)c(=O)n1 (stereo partly shown) [Aza-T-dCyd, 4′-thio-5-aza-2′-deoxycytidine]
IC50 (A-253): 601 nM | IC50 (AGS): 58.4 nM | IC50 (ARH-77): 413 nM | IC50 (AsPC-1): 2120 nM | IC50 (BM-1604): 4410 nM | IC50 (BV-173): 5.32 nM | IC50 (C-33A): 497 nM | IC50 (C32TG): 953 nM | IC50 (CCRFCEM): 119 nM | IC50 (CGTH-W-1): 143 nM | IC50 (COR-L105): 2240 nM | IC50 (Colo 320DM): 92.3 nM | IC50 (DBTRG-05MG): > 10000 nM | IC50 (DU145): 432 nM | IC50 (Daoy): 3610 nM | IC50 (Daudi): 451 nM | IC50 (EM-2): 255 nM | IC50 (HL-60): 514 nM | IC50 (HeLa): 1810 nM | IC50 (J-RT3-T3-5): 106 nM | IC50 (KG-1): 461 nM | IC50 (LS411N): 265 nM | IC50 (MDA MB 231): 210 nM | IC50 (NCI-H508): 542 nM | IC50 (SH-4): 698 nM | IC50 (SU-DHL-4): 17.5 nM | IC50 (SW1463): 303 nM | IC50 (SW837): 354 nM | IC50 (Thp1): 5120 nM | IC50 (U-118 MG): > 10000 nM | IC50 (VA-ES-BJ): 241 nM
